# Experiments:
# [1] = test system: pigs with ventricular fibrillation; test: Potassium chloride cardioplegia during heart compressions in pigs with induced ventricular fibrillation; type: in vivo, pig; conditions: for development of stone heart: pigs, induced ventricular fibrillation, continuous infusion of potassium chloride, heart compressions for 1 hour
# Method: Due to the access to the new external chest compression machine, “Lucas”, we have run extensive experiments in pigs. Until now we have run experiments in 5 years and used over 800 pigs. This new machine is much more efficient than manual compression of the chest. About 30% of the pigs with ventricular fibrillation survived 1 hour of external heart massage with the machine in normothermia. With manual compression no pigs survived 15 minutes. […] We noticed that this started to happen after 15 minutes.
# The idea then came up that if cardioplegia is induced to the heart during heart arrest, it would be possible to eliminate this stone heart condition and make 100% of the hearts survive 60 minutes of heart compression. In clinical heart surgery we routinely use potassium to accomplish depolarisation and cardioplegia. We induced ventricular fibrillation in pigs and then induced cardioplegia in the form of potassium chloride into a central venous needle or even directly into the left ventricle, thereby inducing cardioplegia. By a continuous infusion of potassium chloride we kept the heart in a cardioplegic condition. […] After 60 minutes we cannulated the pig in the femoral artery and vein and established an extracorporeal membrane oxygenation (ECMO). […] When cardioplegia is induced in a heart at normotermia, 90% of the need for oxygen is eliminated, and the heart is arrested in a relaxed condition. Such a heart is very easy to perform external or internal heart massage on.
# [2] = test system: pigs with electrically induced ventricular fibrillation; test: Internal cardiopulmonary resuscitation by continuous left ventricle infusion of potassium chloride, followed by V-A ECMO; type: in vivo
# Method: The purpose of the experiment was to evaluate the effects of continuous potassium chloride infusion during internal CPR with a catheter inserted into the left ventricle and to investigate the need for ECMO (extracorporeal membrane oxygenation) after high dose potassium chloride treatment during CPR, to obtain return of ROSC after prolonged CPR.
# The haemodynamic parameters continuously was measured and stored as mean values every 5 second. Blood gases was analyzed with a Radiometer™ ABL 555® blood gas machine. Drug administration (Addex® potassium 4 mmol/ml, Fresenius Kabi, Uppsala, Sweden. 40 mg/ml papaverin, NM Pharma, Stockholm, Sweden.) during CPR was given according a specific protocol.
# The following data parameters were measured and stored as mean values every 5 seconds throughout the experiment:
# ECG, arterial pressure (SAP/MAP/DAP), central venous pressure (CVP), coronary perfusion pressure (CPP), carotid flow (CF), temperature, urine production (every 15 min), and blood gases.
# The blood gas (Radiometer™, ABL 555®) data parameter were measured and stored intermittently or written down by hand throughout the experiment.
# Electrically ventricular fibrillation was induced electrically in healthy test pigs (25-80 kg in body weight) at normothermic conditions (a body temperature of 38° C.). After 90 seconds of untreated ventricular fibrillation internal heart massage started manually and continued for 60 min. At the same time a booster injection of 10 ml potassium (Addex® potassium 4 mmol/ml, Fresenius Kabi, Uppsala, Sweden) and 3 ml papaverin sulfate (Papaverin 40 mg/ml, NM Pharma, Stockholm, Sweden) was given. Directly after a potassium infusion (Addex® potassium 4 mmol/ml, Fresenius Kabi, Uppsala, Sweden) was started (100 ml/h for 20 min, 50 ml/h for 20 min, 20 ml/h for 20 min). […] After 60 minutes of resuscitation V-A (venoarterial) ECMO was established and by ultrafiltration the serum potassium ion concentration was reduced towards normal levels.
# After the 6-hour test period, the animal was put to death with a euthanasia solution.
compound,measurement,setting,value
[Cl-].[K+] [potassium chloride],return of spontaneous heart beat after potassium chloride washed away by filtration,"[1]; after 60 minutes of heart compressions, ECMO via femoral artery and vein",the heart started to beat spontaneously again
same,recovery of hearts after heart massage,"[1]; experimental animal with acute ventricular fibrillation, after one hour of heart massage",possible to recover all hearts
same,development of stone heart,[1],without the development of stone heart
same,development of stone heart,[1]; listed as potassium,eliminates the development of stone heart
same,Event: heart beating,"[2]; 25 kg Swedish domestic pig, Exp. Time 2:22:01, after stop K at 2:18:38, on bypass",spontaneously
same,Event: urine production,"[2]; 25 kg Swedish domestic pig, Exp. Time 4:29:33, after off bypass at 3:42:43",normal urine
same,heart rhythm / ROSC,"[2]; after 1 h of CPR in combination with potassium administration followed by ECMO, FIG. 1",ROSC came into effect

# From patent US7270833B2, “Cardioplegic solution” (Jolife AB, priority 2000, dated 2007)
